# Laboratory results as given in patent US12023323B2, “Carbohydrate-binding small molecules with antiviral activity” (priority 2018, dated 2024).
# Entries after “also recorded” stand apart in the source; their conditions may differ. Like-named read-outs stand apart in the source and are kept apart here.
# Experiments:
# [1] = Selectivity across the five octyloxy pyranosides from NMR titrations; assay type: binding; details: for glycan preference in words / binding profile across the glycans in words: five octyloxy pyranosides, CD2Cl2, 298 K
# ZIKV GFP RVPs [2] = details: for therapeutic index (TC50/IC50): Table 3
# [3] = Cellular toxicity, CellTiter-Glo, Vero cells; details: African green monkey
# [4] = 1H NMR titration with octyloxy pyranoside α-Man; assay type: binding; parameters: key to Ka (M^−1) with α-Man: No detectable binding; details: for Ka (M^−1) with α-Man: NMR titrations in CD2Cl2 at 298 K
# [5] = 1H NMR titration with octyloxy pyranoside β-Glc; assay type: binding
# ZIKV GFP RVPs [6] = experiment: microbe, parasite or virus in culture; details: Zika virus, Vero
# HIV-1 = details: cell culture; cited from earlier work
# [7] = 1H NMR titration with octyloxy pyranoside β-Man; assay type: binding; parameters: key to Ka (M^−1) with β-Man: No detectable binding; details: for Ka (M^−1) with β-Man: NMR titrations in CD2Cl2 at 298 K
# Vero cells = experiment: Cellular toxicity, CellTiter-Glo, Vero cells; details: for CC50: read-out: TC50, Table 1, 72 h, CellTiter-Glo
# [8] = 1H NMR titration with octyloxy pyranoside α-Glc; assay type: binding; details: NMR titrations
# HeLa cells = experiment: Cellular toxicity, CellTiter-Glo, HeLa cells; details: read-out: TC50, Table 2, 72 h
# ZIKV RVPs = experiment: microbe, parasite or virus in culture; assay type: cell-based, Zika virus; details: Zika virus, HeLa
# [9] = Table 3, Vero cells, ZIKV RVPs, average of at least two independent measurements
# [10] = read-out: IC50 (strong antiviral activity), Vero cells, ZIKV RVPs
structure (smiles),measurement,setting,value
"c1ccc2[nH]c(CNCc3cc(CNCc4cc5ccccc5[nH]4)cc(-c4cc(CNCc5cc6ccccc6[nH]5)cc(CNCc5cc6ccccc6[nH]5)c4)c3)cc2c1 [SCR018, 1,1′,1″,1′″-([1,1′-biphenyl]-3,3′,5,5′-tetrayl)tetrakis(N-((1H-indol-2-yl)methyl)methanamine)]",glycan preference in words,[1],uniquely bind α-Man; also recorded: specific for α-Man
same,therapeutic index (TC50/IC50),ZIKV GFP RVPs [2]; Vero cells,2
same,anti-ZIKV activity in words,"ZIKV GFP RVPs [2]; Vero cells, ZIKV RVPs",weaker inhibition
same,CC50 at 72 h,[3],29.8 ± 5 µM
same,"fold selectivity for α-Man, SCR019 compared to SCR018",[4]; 2-indole vs 3-indole,36
same,Ka (M^−1) with α-Man,[4]; 1:1 binding,11000 M⁻¹
same,affinity for α-Man relative to SCR001,[4]; fold / ratio SCR:SCR001,10
same,binding to β-Glc in words,[5]; NMR peak shifting upon mixing,no substantial binding
"c1cc(CNCc2cc(CNCc3cc[nH]c3)cc(-c3cc(CNCc4cc[nH]c4)cc(CNCc4cc[nH]c4)c3)c2)c[nH]1 [SCR017, 1,1′,1″,1′″-([1,1′-biphenyl]-3,3′,5,5′-tetrayl)tetrakis(N-((1H-pyrrol-3-yl)methyl)methanamine)]",glycan preference in words,[1],prefers β-Glc; also recorded: specific for β-Glc
same,IC50 relative to regioisomer,"ZIKV GFP RVPs [2]; SCR023 vs SCR022, SCR017 vs SCR001",four times higher
same,therapeutic index (TC50/IC50),ZIKV GFP RVPs [2]; Vero cells,66
same,anti-ZIKV activity in words,"ZIKV GFP RVPs [2]; Vero cells, ZIKV RVPs",potent anti-ZIKV activity
same,CC50 at 72 h,[3],316 ± 18 µM
same,IC50,ZIKV GFP RVPs [6]; [9],4.8 ± 0.4 µM
same,IC50,"ZIKV GFP RVPs [6]; Table 3 study, Vero cells, ZIKV RVPs, unit μm [sic]",< 5 µM
same,IC50,ZIKV GFP RVPs [6]; [10],< 5 µM
same,K2 (1:2 SCR·glycan association constant) with β-Glc,[5]; 1:2 SCR·glycan complexes,6800 M⁻¹
same,cumulative association constant β with β-Glc,[5]; 1:2 SCR·glycan complexes,8.4×10^1 M^−2
same,cumulative association constant β with β-Glc,"[5]; 1:2 SCR·glycan, unit M^2",8.4×10^1 M^2
same,K1 (1:1 association constant) with β-Glc,"[5]; CD2Cl2, 298 K",1.2 M⁻¹
same,affinity for β-Glc relative to SCR001,[5]; fold / ratio SCR:SCR001,7
CN[C@@H]1[C@H](O[C@@H]2OC[C@@H](O)[C@H](O)[C@H]2O)[C@@H](O)[C@H](O[C@H]2c3cc(C)c(C(=O)N[C@H](C)C(=O)O)c(O)c3-c3c(cc4c(c3O)C(=O)c3cc(OC)cc(O)c3C4=O)[C@@H]2O)O[C@@H]1C [pradimicin A],50% effective concentration against HIV-1,HIV-1,micromolar concentration range
"c1ccc2c(CNCc3cc(CNCc4c[nH]c5ccccc45)cc(-c4cc(CNCc5c[nH]c6ccccc56)cc(CNCc5c[nH]c6ccccc56)c4)c3)c[nH]c2c1 [SCR019, 1,1′,1″,1′″-([1,1′-biphenyl]-3,3′,5,5′-tetrayl)tetrakis(N-((1H-indol-3-yl)methyl)methanamine)]",cumulative association constant β=K1×K2 with β-Man,[7]; 1:2 SCR·glycan binding model,7.4×10^4 M^−2
same,cumulative association constant β with β-Man,"[7]; 1:2 SCR·glycan, unit M^2",7.4×10^4 M^2
same,K1 (1:1 association constant) with β-Man,"[7]; CD2Cl2, 298 K",2.3 M⁻¹
same,K2 (1:2 SCR·glycan association constant) with β-Man,"[7]; CD2Cl2, 298 K, 1:2 SCR·glycan binding model",32000 M⁻¹
same,affinity for β-Man relative to SCR001,[7]; SCR019:SCR001,2
same,glycan preference in words,[1],prefers β-Man; also recorded: selective for Mannosides with a preference for the β-anomer
same,affinity for β-Man over α-Man,[1]; fold,250
same,therapeutic index (TC50/IC50),ZIKV GFP RVPs [2]; Vero cells,153
same,cellular toxicity in words,Vero cells,minimal cellular toxicity; also recorded: low off-site toxicity
same,CC50 at 72 h,[3],39.8 ± 1.7 µM
same,IC50,ZIKV GFP RVPs [6]; [9],0.26 µM
same,IC50,ZIKV GFP RVPs [6]; [10],< 5 µM
same,Ka (M^−1) with α-Man,[4]; 1:1 binding,290 M⁻¹
same,binding to α-Glc in words,[8],no substantial binding
c1c[nH]c(CNCc2cc(CNCc3ccc[nH]3)cc(-c3cc(CNCc4ccc[nH]4)cc(Cn4cc(COCCOCCOCCOCc5cn(Cc6cc(CNCc7ccc[nH]7)cc(-c7cc(CNCc8ccc[nH]8)cc(CNCc8ccc[nH]8)c7)c6)nn5)nn4)c3)c2)c1 [SCR012],Ka (M^−1) with β-Man,[7]; 1:1 binding,1700 M⁻¹
same,binding profile across the glycans in words,[1],promiscuous; also recorded: bind all five glycans
same,CC50,Vero cells,36.2 µM
same,Ka (M^−1) with α-Man,[4]; 1:1 binding,2600 M⁻¹
same,CC50,HeLa cells,2.48 µM
"c1csc(CNCc2cc(CNCc3cccs3)cc(-c3cc(CNCc4cccs4)cc(CNCc4cccs4)c3)c2)c1 [SCR003, 1,1′,1″,1′″-([1,1′-biphenyl]-3,3′,5,5′-tetrayl)tetrakis(N-(thiophen-2-ylmethyl)methanamine)]",Ka (M^−1) with β-Man,[7],c
same,Ka (M^−1) with β-Man,[7]; 1:1 binding,< 30 M⁻¹
same,binding profile across the glycans in words,[1],"only had measurable binding with β-Glc, and α-Man; also recorded: binds only β-Glc and α-Man"
same,glycan preference in words,[1],preference for α-Man; also recorded: selective for α-Man
same,anti-ZIKV activity in words,"ZIKV GFP RVPs [2]; Vero cells, ZIKV RVPs",less potent
same,CC50,Vero cells,4.12 µM
same,IC50,"ZIKV GFP RVPs [6]; Table 1, Vero cells, compounds 30 min before ZIKV RVPs, GFP+ cells 72 h postinfection",1.31 µM
same,Ka (M^−1) with α-Man,[4],c
same,CC50,HeLa cells,2.47 µM
same,IC50,ZIKV RVPs,0.56 ± 0.08 µM
"O=C(NCc1cc(CNC(=O)c2cccs2)cc(-c2cc(CNC(=O)c3cccs3)cc(CNC(=O)c3cccs3)c2)c1)c1cccs1 [SCR008, N,N,N′,N″-([1,1′-biphenyl]-3,3′,5,5′-tetrayltetrakis(methylene))tetrakis(thiophene-2-carboxamide)]",IC50,ZIKV GFP RVPs [2],> 100 µM
same,anti-ZIKV activity in words,ZIKV GFP RVPs [2],not effective
